From ChEMBL document CHEMBL3390848, “Affinity selection and sequence-activity relationships of HIV-1 membrane fusion inhibitors directed at the drug-resistant variants” (Medchemcomm, 2010)
Residues, ends and D or L forms follow the SMILES beside them.

Tests used:
[1] = test system: Envelope glycoprotein gp160 (Human immunodeficiency virus 1), Q72502 [V38A]; experiment: Binding affinity to HIV1 His-tagged N-terminal heptad repeat of envelope glycoprotein gp41 assessed as recovery of N54 V38A mutant-drug complex after 2 hrs by LC-MS analysis; parameters: concentration or dose not given beside the values
[2] = test system: Human immunodeficiency virus 1; experiment: Thermal stability of HIV1 envelope glycoprotein gp41 His-tagged N-terminal heptad repeat N54 N43D mutant-drug complex assessed as thermal unfolding transition state by measuring molar ellipticity at 4 to 90 degC by circular dichroic spectra analysis
[3] = test system: Human immunodeficiency virus 1; experiment: Thermal stability of HIV1 envelope glycoprotein gp41 His-tagged N-terminal heptad repeat N54-drug complex assessed as thermal unfolding transition state by measuring molar ellipticity at 4 to 90 degC by circular dichroic spectra analysis
[4] = test system: Human immunodeficiency virus 1; experiment: Binding affinity to HIV1 His-tagged N-terminal heptad repeat of envelope glycoprotein gp41 assessed as recovery of N54-drug complex after 2 hrs by LC-MS analysis; parameters: concentration or dose not given beside the values
[5] = test system: Human immunodeficiency virus 1; experiment: Antiviral activity against HIV1 NL4-3 harboring gp41 D36G mutant infected in human HeLa cells expressing CD4-LTR-beta-gal assessed as inhibition of viral replication after 48 hrs by MAGI assay; format: functional, organism-based
[6] = test system: Envelope glycoprotein gp160 (Human immunodeficiency virus 1), Q72502 [V38A]; experiment: Thermal stability of HIV1 envelope glycoprotein gp41 His-tagged N-terminal heptad repeat N54 V38A mutant-drug complex assessed as thermal unfolding transition state by measuring molar ellipticity at 4 to 90 degC by circular dichroic spectra analysis
[7] = test system: Human immunodeficiency virus 1; experiment: Binding affinity to HIV1 His-tagged N-terminal heptad repeat of envelope glycoprotein gp41 assessed as recovery of N54 N43D mutant-drug complex after 2 hrs by LC-MS analysis; parameters: concentration or dose not given beside the values

Structure (SMILES)	Activity [1]	Tm [2]	Tm [3]	Activity [4]	EC50 [5]	Tm [6]	Activity [7]
CC[C@H](C)[C@H](NC(=O)[C@H](CC(C)C)NC(=O)[C@H](CCC(=O)O)NC(=O)[C@H](CCC(=O)O)NC(=O)[C@@H](NC(=O)[C@H](CC(C)C)NC(=O)[C@H](CO)NC(=O)[C@@H](NC(=O)[C@H](Cc1ccc(O)cc1)NC(C)=O)[C@@H](C)O)[C@@H](C)CC)C(=O)N[C@@H](CCCCN)C(=O)N[C@@H](CCCCN)C(=O)N[C@@H](C)C(=O)N[C@@H](CCC(=O)O)C(=O)N[C@@H](CCC(=O)O)C(=O)N[C@@H](CCC(N)=O)C(=O)N[C@@H](CCC(N)=O)C(=O)N[C@@H](CCCCN)C(=O)N[C@@H](CCCCN)C(=O)N[C@@H](CC(N)=O)C(=O)N[C@@H](CCC(=O)O)C(=O)N[C@@H](CCC(=O)O)C(=O)N[C@@H](CCC(=O)O)C(=O)N[C@@H](CC(C)C)C(=O)N[C@@H](CCCCN)C(=O)N[C@@H](CCCCN)C(=O)N[C@@H](CC(C)C)C(=O)N[C@@H](CCC(=O)O)C(=O)N[C@@H](CCC(=O)O)C(=O)N[C@@H](Cc1c[nH]c2ccccc12)C(=O)N[C@@H](C)C(=O)N[C@@H](CCCCN)C(=O)N[C@@H](CCCCN)C(=O)N[C@@H](Cc1c[nH]c2ccccc12)C(=O)N[C@@H](CC(N)=O)C(=O)N[C@@H](Cc1c[nH]c2ccccc12)C(=O)N[C@@H](Cc1ccccc1)C(N)=O (Ac-YTSLIEELIKKAEEQQKKNEEELKKLEEWAKKWNWF-NH2)	10%	71.9 °C	80.1 °C	10%	0.3 nM	64.6 °C	10.2%
CC[C@H](C)[C@H](NC(=O)[C@H](CC(C)C)NC(=O)[C@H](CCC(=O)O)NC(=O)[C@H](CCC(=O)O)NC(=O)[C@@H](NC(=O)[C@H](CC(C)C)NC(=O)[C@H](CO)NC(=O)[C@@H](NC(=O)[C@H](Cc1ccc(O)cc1)NC(C)=O)[C@@H](C)O)[C@@H](C)CC)C(=O)N[C@@H](CCCCN)C(=O)N[C@@H](CCCCN)C(=O)N[C@@H](Cc1c[nH]c2ccccc12)C(=O)N[C@@H](CCC(=O)O)C(=O)N[C@@H](CCC(=O)O)C(=O)N[C@@H](CCC(N)=O)C(=O)N[C@@H](CCC(N)=O)C(=O)N[C@@H](CCCCN)C(=O)N[C@@H](CCCCN)C(=O)N[C@@H](CC(N)=O)C(=O)N[C@@H](CCC(=O)O)C(=O)N[C@@H](CCC(=O)O)C(=O)N[C@@H](CCC(=O)O)C(=O)N[C@@H](CC(C)C)C(=O)N[C@@H](CCCCN)C(=O)N[C@@H](CCCCN)C(=O)N[C@@H](CC(C)C)C(=O)N[C@@H](CCC(=O)O)C(=O)N[C@@H](CCC(=O)O)C(=O)N[C@@H](Cc1c[nH]c2ccccc12)C(=O)N[C@@H](C)C(=O)N[C@@H](CCCCN)C(=O)N[C@@H](CCCCN)C(=O)N[C@@H](Cc1c[nH]c2ccccc12)C(=O)N[C@@H](CC(N)=O)C(=O)N[C@@H](Cc1c[nH]c2ccccc12)C(=O)N[C@@H](Cc1ccccc1)C(N)=O (Ac-YTSLIEELIKKWEEQQKKNEEELKKLEEWAKKWNWF-NH2)	7.7%	61.4 °C	62 °C	5.2%	20 nM	53.2 °C	7.6%
